Measured values from patent US11903959B2 (EMORY UNIVERSITY, priority 2017, dated 2024).
Like-named read-outs stand apart in the source and are kept apart here.

Columns and labels:
[1] = Cytotoxicity (CC50) run with antiviral assays, BHK cells; type: cell-based; details: hamster, Flaviviridae table
Method: Four-concentration CPE inhibition assays are performed. Confluent or near-confluent cell culture monolayers in 96-well disposable microplates are prepared. Cells are maintained in MEM or DMEM supplemented with FBS as required for each cell line. For antiviral assays the same medium is used but with FBS reduced to 2% or less and supplemented with 50 μg/mL gentamicin. The test compound is prepared at four log10 final concentrations, usually 0.1, 1.0, 10, and 100 μg/mL or μM. The virus control and cell control wells are on every microplate. In parallel, a known active drug is tested as a positive control drug using the same method as is applied for test compounds. The positive control is tested with each test run. The assay is set up by first removing growth media from the 96-well plates of cells. Then the test compound is applied in 0.1 mL volume to wells at 2× concentration. […] The dye content in each well is quantified using a 96-well spectrophotometer at 540 nm wavelength. […]
This assay involves similar methodology to what is described in the previous paragraphs using 96-well microplates of cells. […] The incorporated dye content is quantified as described above. […] Compounds observed to be active above are further evaluated by VYR assay. […] Wells are scored for presence or absence of virus after distinct CPE (measured by neutral red uptake) is observed. […]

[2] = test system: HRV-14; experiment: microbe, parasite or virus in culture; type: cell-based
[3] = test system: Flu A H3N2; experiment: microbe, parasite or virus in culture; type: cell-based, influenza A virus
[4] = test system: HCoV; experiment: microbe, parasite or virus in culture; type: cell-based; details: unidentified human coronavirus, Vero C1008
[5] = test system: Poliovirus -1; experiment: microbe, parasite or virus in culture; type: cell-based; details: Enterovirus C, Vero 76, Poliovirus -1, Vero76 cells
[6] = test system: MERS; experiment: microbe, parasite or virus in culture; type: cell-based, MERS coronavirus; details: Middle East respiratory syndrome-related coronavirus, Vero C1008
[7] = test system: Vero cells
[8] = test system: SARS; experiment: microbe, parasite or virus in culture; type: cell-based, SARS coronavirus; details: Severe acute respiratory syndrome coronavirus
[9] = rat, in vivo, po, 50 mg/kg
[10] = test system: VEEV; experiment: microbe, parasite or virus in culture; type: cell-based; details: Venezuelan equine encephalitis virus
[11] = test system: WEEV; experiment: microbe, parasite or virus in culture; type: cell-based; details: Western equine encephalitis virus
[12] = test system: RVFV; experiment: microbe, parasite or virus in culture; type: cell-based; details: Rift Valley fever virus, Vero
[13] = female, DBA-1J, mouse, in vivo
[14] = test system: Pichinde virus; experiment: microbe, parasite or virus in culture; type: cell-based; details: Vero, Vero cells

Compound: O=c1nc(NO)ccn1C1OC(CO)C(O)C1O (stereo not drawn) [EIDD-1931, 1-(3,4-dihydroxy-5-(hydroxymethyl)tetrahydrofuran-2-yl)-4-(hydroxyamino)pyrimidin-2-one]
- CC50 [1]: 30 µM
- EC50 [2]: 1.36 µM
- EC50 ([2]; Rhinovirus B, HRV14): 1.28 µM
- EC50 [3]: 0.88 µM
- EC50 ([3]; Influenza A virus, H3N2, MDCK): 0.96 µM
- EC50 [4]: < 0.4 µM
- EC50 [5]: 12.8 µM
- EC50 [6]: < 0.8 µM
- EC90 [6]: < 0.8 µM
- AUC0->t [7]: 228.6 pmol · h/M cells
- EC90 ([8]; Vero 76): 0.56 µM
- EC90 ([8]; Vero C1008): < 0.8 µM
- EC50 ([8]; Vero C1008, SARS, Vero E6 cells): < 0.8 µM
- calculated bioavailability (% F) ([9]; male, Sprague-Dawley (SD)): 28%
- tissue distribution [9]: well distributed into all tissues tested
- EC90 ([10]; Vero 76): 0.8 µM
- EC50 ([10]; Vero 76, VEEV, Vero76 cells): 1.28 µM
- EC50 ([10]; Vero, VEE virus, Vero cell cytopathic effect (CPE) model): 1 µM
- EC90 ([11]; Vero 76): < 1.28 µM
- EC50 ([11]; Vero 76, WEEV, Vero76 cells): 1.28 µM
- EC50 ([11]; Vero, WEE virus, Vero cell cytopathic effect (CPE) model): 1.36 µM
- EC90 [12]: 1 µM
- EC50 ([12]; RVFV, Vero cells): 1.68 µM
- Bioavailability (versus i.p. delivery) [13]: 39-46%
- Bioavailability (versus i.p. delivery) ([13]; 30 mg/kg): 65%
- plasma T1/2 ([13]; iv): 2.2 h
- EC50 [14]: 18.4 µM
